Data: patent US7157099B2, “Sustained release pharmaceutical compositions for the parenteral administration of hydrophilic compounds” (Italfarmaco S.p.A., priority 2000, dated 2007)

Columns and labels:
[1] = male rats, 6 mg/rat of microemulsion of Example 11
Method: (§1) Plasma samples were taken before the administration of the compound and 0.5 hours, 24 hours, 4, 6 and 8 days after treatment.
(§2) Octreotide was extracted from plasma and analyzed with LC-MS-MS apparatus vs. a calibration curve.

in vivo = conditions: male, rat, plasma, 6 mg/rat
Method: as §1, §2

SMILES: C[C@@H](O)[C@@H]1NC(=O)[C@H](CCCCN)NC(=O)[C@@H](Cc2c[nH]c3ccccc23)NC(=O)[C@H](Cc2ccccc2)NC(=O)[C@@H](NC(=O)[C@H](N)Cc2ccccc2)CSSC[C@@H](C(=O)N[C@H](CO)[C@@H](C)O)NC1=O [Octreotide]
- Time until which significant Octreotide plasma levels were found after treatment [1]: 8 days
- level at 0.5 h (in vivo): 539 ng/mL
- level at 24 h (in vivo): 40.2 ng/mL
- level at 96 h (in vivo): 62.5 ng/mL
- level at 144 h (in vivo): 4.5 ng/mL
- level at 192 h (in vivo): 7.6 ng/mL
